Experimental data taken from ChEMBL document CHEMBL1142464, “Synergistic effect of basic residues at positions 14-15 of nociceptin on binding affinity and receptor activation” (Bioorg Med Chem, 2008).

Legend:
Nociceptin receptor [1] = target: T1, Nociceptin receptor (Rattus norvegicus, UniProt P35370); assay: Displacement of [3H]nociceptin from rat ORL1 receptor expressed in african green monkey COS7 cells; assay type: cell-based, COS-7
[2] = Stability in presence of rat brain trypsin assessed compound degradation after 60 mins by HPLC; assay type: ADME; details: read-out: Activity
[3] = Stability in presence of rat brain trypsin assessed as half life of compound hydrolysis in presence of trypsin inhibitor bacitracin by HPLC; assay type: ADME, tissue-based; details: isolated protein
[4] = Stability in presence of trypsin assessed as half life of compound hydrolysis; assay type: ADME
[5] = Stability in presence of rat brain trypsin assessed as half life of compound hydrolysis by HPLC; assay type: physicochemical
Nociceptin receptor [6] = target: T1, Nociceptin receptor; assay: Activation of rat ORL1 receptor expressed in african green monkey COS7 cells by [35S]GTPgammaS binding assay; assay type: functional, cell-based, COS-7
[7] = target: Nociceptin receptor (Rattus norvegicus) (UniProt P35370); assay: Activation of rat ORL1 receptor expressed in african green monkey COS7 cells assessed as stimulation of [35S]GTPgammaS binding relative to nociceptin; assay type: functional, cell-based; details: COS-7
Sequence of Nociceptin receptor (Rattus norvegicus) (P35370 whole entry): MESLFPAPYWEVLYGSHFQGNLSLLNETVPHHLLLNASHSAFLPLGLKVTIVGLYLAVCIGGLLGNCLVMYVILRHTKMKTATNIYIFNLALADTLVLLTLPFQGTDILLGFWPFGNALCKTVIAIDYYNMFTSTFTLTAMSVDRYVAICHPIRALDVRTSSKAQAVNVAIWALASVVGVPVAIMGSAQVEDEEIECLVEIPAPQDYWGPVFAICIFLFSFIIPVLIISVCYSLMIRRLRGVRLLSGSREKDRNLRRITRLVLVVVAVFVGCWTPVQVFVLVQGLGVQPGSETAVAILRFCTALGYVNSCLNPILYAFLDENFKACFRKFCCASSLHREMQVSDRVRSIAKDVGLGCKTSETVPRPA

T1 sequence (P35370 whole entry): as above

Compound	IC50 (Nociceptin receptor [1]) [nM]	EC50 (Nociceptin receptor [6]) [nM]	other results
C[C@H](NC(=O)CNC(=O)[C@@H](NC(=O)[C@H](Cc1ccccc1)NC(=O)CNC(=O)CNC(=O)[C@@H](N)Cc1ccccc1)[C@@H](C)O)C(=O)N[C@@H](CCCN=C(N)N)C(=O)N[C@@H](CCCCN)C(=O)N[C@@H](CO)C(=O)N[C@@H](C)C(=O)N[C@@H](CCCN=C(N)N)C(=O)N[C@@H](CCCCN)C(=O)N[C@@H](CCCN=C(N)N)C(=O)N[C@@H](CCCCN)C(=O)N[C@@H](CC(N)=O)C(=O)N[C@@H](CCC(N)=O)C(=O)O	0.21	1.1	metabolised at 1 h [2]: < 10%; Stability [3]: Stable; half-life [4]: 30 min; half-life [5]: 600 min
H-FGGFTGARKSARKLVNQ-OH	2.2	30	
C[C@H](NC(=O)CNC(=O)[C@@H](NC(=O)[C@H](Cc1ccccc1)NC(=O)CNC(=O)CNC(=O)[C@@H](N)Cc1ccccc1)[C@@H](C)O)C(=O)N[C@@H](CCCNC(=N)N)C(=O)N[C@@H](CCCCN)C(=O)N[C@@H](CO)C(=O)N[C@@H](C)C(=O)N[C@@H](CCCNC(=N)N)C(=O)N[C@@H](CCCCN)C(=O)N[C@@H](CCCNC(=N)N)C(=O)N[C@@H](CCCCN)C(=O)N[C@@H](CC(N)=O)C(=O)N[C@@H](CCC(N)=O)C(=O)O			Activity [7]: 10%
H-FGGFTGARKRKRKLANQ-OH [listing 1 of 2 here]			Activity [7]: > 90%
H-FGGFTGARKSARKLYNQ-OH	1	33	
H-FGGFTGARKSARKKRNQ-OH	0.21	1.3	
H-FGGFTGARKSARKLFNQ-OH	1	12	
H-FGGFTGARKSARKAANQ-OH	1.5	11	
H-FGGFTGARKSARKFANQ-OH	1.1	9	
C[C@H](NC(=O)CNC(=O)[C@@H](NC(=O)[C@H](Cc1ccccc1)NC(=O)CNC(=O)CNC(=O)[C@@H](N)Cc1ccccc1)[C@@H](C)O)C(=O)N[C@@H](CCCN=C(N)N)C(=O)N[C@@H](CCCCN)C(=O)N[C@@H](CO)C(=O)N[C@@H](C)C(=O)N[C@@H](CCCN=C(N)N)C(=O)N[C@@H](CCCCN)C(=O)N[C@@H](Cc1ccc(O)cc1)C(=O)N[C@@H](C)C(=O)N[C@@H](CC(N)=O)C(=O)N[C@@H](CCC(N)=O)C(=O)O	1.1	11	
H-FGGFTGARKSARKRRNQ-OH	0.27	0.98	
H-FGGFTGARKSARKLARK-OH	0.54	2.7	
H-FGGFTGARKSARKKANQ-OH	0.41	4.1	
H-FGGFTGARKRKRKLANQ-OH [listing 2 of 2 here]	0.94	86	
CC(C)C[C@H](NC(=O)[C@H](CCCCN)NC(=O)[C@H](CCCNC(=N)N)NC(=O)[C@H](C)NC(=O)[C@H](CO)NC(=O)[C@H](CCCCN)NC(=O)[C@H](CCCNC(=N)N)NC(=O)[C@H](C)NC(=O)CNC(=O)[C@@H](NC(=O)[C@H](Cc1ccccc1)NC(=O)CNC(=O)CNC(=O)[C@@H](N)Cc1ccccc1)[C@@H](C)O)C(=O)N[C@@H](CCCCN)C(=O)N[C@@H](CC(N)=O)C(=O)N[C@@H](CCC(N)=O)C(=O)O	0.41	5.8	half-life [4]: 20 min
H-FGGFTGARKSARKRKRK-OH	0.42	2.3	
H-FGGFTGARKSARKWANQ-OH	0.41	5.8	
H-FGGFTGARKSARKKKNQ-OH	0.16	1.1	
H-FGGFTRKRKSARKLANQ-OH [listing 1 of 2 here]	13	870	
H-FGGFTGARKSARKLRNQ-OH	0.31	3.2	
H-FGGFTGARKSARKRANQ-OH	0.33	4	half-life [4]: 23 min
H-FGGFTGARKSARKVANQ-OH	1.1	15	
H-FGGFTRKRKSARKLANQ-OH [listing 2 of 2 here]			Activity [7]: 60%
CC(C)C[C@H](NC(=O)[C@H](CCCCN)NC(=O)[C@H](CCCN=C(N)N)NC(=O)[C@H](C)NC(=O)[C@H](CO)NC(=O)[C@H](CCCCN)NC(=O)[C@H](CCCN=C(N)N)NC(=O)[C@H](C)NC(=O)CNC(=O)[C@@H](NC(=O)[C@H](Cc1ccccc1)NC(=O)CNC(=O)CNC(=O)[C@@H](N)Cc1ccccc1)[C@@H](C)O)C(=O)N[C@@H](C)C(=O)N[C@@H](CC(N)=O)C(=O)N[C@@H](CCC(N)=O)C(=O)O [NOCICEPTIN]			metabolised at 1 h [2]: 10%; Stability [3]: Stable; half-life [4]: 13 min; half-life [5]: 480 min
H-FGGFTGARKSARKLWNQ-OH	2.1	50	
H-FGGFTGARKSARKLLNQ-OH	0.48	10	
